One data set has as its system HCT-116. Kind of data set: MTT viability assay, HCT-116. The class given is cell-based. The conditions noted are these: 72h, human colon cancer cells, biotin receptor-negative (Table 3a).
The subject of another data set is MCF-7. Kind of data set: MTT viability assay, MCF-7. The format is cell-based, human. (In general: Tetrazolium assays rely on reduction of a dye to a coloured formazan, in cell work by metabolically active cells.)
The test system of data set [1] is human mesenchymal stem cells (WJ-MSCs). Briefly: MTT viability assay, toxicity to normal cells. The format is cell-based. The following applies: 48 h growth in presence of drug, MTT assay (Figure 1).
Text: Thus, human mesenchymal stem cells were extracted from Wharton's jelly (matrix) of the human fetal umbilical cord, also known as Wharton's Jelly Mesenchymal Stem cells (WJ-MSCs), from full-term pregnancies, as described in Christodoulou et al. [2022] and Goulielmaki et al. [2019].
WJ-MSCs up to seventh passage were used for this in vitro assay (b22 population doublings). The mean population doubling time (PDT) was 32+/- hours and cells maintained a consistent MSC immunophenotypic profile. […]
Cell viability of (WJ-MSCs) was determined colorimetrically in a 96-well plate assay, using the tetrazolium compound MTS (3-[4,5,dimethylthiazol-2-yl]-5-[3-carboxymethoxy-phenyl]-2-[4-sulfophenyl]-2H-tetrazolium, inner salt), which is bioreduced by cells into a colored formazan product that is soluble in tissue culture medium. […]
At a concentration of 3.5x10^2 cells/200 µL culture medium/well (37 °C, 5% CO2), WJ-MSCs were plated into 96-well microtiter plates. […] At the end, the absorbance was measured at 490nm (with 650nm as a reference wavelength) in a microplate reader (monochromator) [Monochro-mator Microplate Reader safire2 TECAN AUSTRIA GMBH/Measurement parameter Editor Magellan (version 6)].
Data set [2] is described as follows: Pharmacokinetic study in mice, plasma by LC-MS/MS. The format is in vivo, female C57BL/6 mice. The conditions noted are these: ip. The procedure: Samples (plasma) were collected after 15, 30, 60 and 120 min of drug administration.
All samples were analyzed by an LC-MS/MS bioanalytical methodology.

The next data set deals with A549. Kind of data set: Platinum cell uptake by mass cytometry (CyTOF), A549. The class given is cell-based. The following applies: 50 µM, 60 min, in comparison to carboplatin (Figure 2). The procedure: (§1) Cell cultures: Cancer cell lines, SkBr3, MDA-MB-231, MCF-7 and A549, which overexpress biotin receptors on their surface membranes, were each independently cultured in Dulbecco's Modified Eagle Medium (DMEM), supplemented with 10% fetal bovine serum (FBS), penicillin (100 µ/mL) and streptomycin (100 µg/mL) at 37 °C and 5% CO2.
(§2) For MCF-7, MDA-MB-231 and SkBr3 cell lines, an additional step was performed by preincubating for 15 min with 10-100 µM biotin. The quantification was performed by means of mass cytometry. Cell singlet discrimination - staining protocol B of the mass cytometer supplier (Fluidigm) was followed.
(§3) Medium was removed from cultures and cells were pelleted at 1500 rpm. Resuspension of cells was performed in an appropriate volume of RPMI 1640 or DMEM medium to obtain a density of about 1.5-3 x 10^6 cells per mL. Cells were fractionated and treated with different concentrations of each drug or maintained as is (control). […] Suspensions were incubated for 60 min at 37 °C and 5% CO2. Suspensions used to evaluate the effect of biotin in platinum cellular uptake, were preincubated with 100 µM biotin for 15 min before the treatment with each drug. […] A small volume of suspensions was maintained to quantify cells using Trypan blue staining. […]

The test system of another data set is SkBr3. Briefly: Platinum cell uptake by mass cytometry (CyTOF), SkBr3. The format is cell-based. The following applies: for cellular uptake (CyTOF Pt195 signal): 50 µM, 60 min, in comparison to 50 µM carboplatin (Figure 3). The procedure:
as §1, §2
Medium was removed from cultures and cells were pelleted at 1500 rpm. Resuspension of cells was performed in an appropriate volume of RPMI 1640 or DMEM medium to obtain a density of about 1.5-3 x 10^6 cells per mL. Cells were fractionated and treated with different concentrations of each drug or maintained as is (control). […] Suspensions were incubated for 60 min at 37 °C and 5% CO2. Suspensions used to evaluate the effect of biotin in platinum cellular uptake, were preincubated with 100 µM biotin for 15 min before the treatment with each drug. After incubation, cells were stained using Maxpar cell staining buffer (MCSB) and then fixed using 1.6% paraformaldehyde in PBS for 10 min at room temperature. Incubation with intercalator 103Rh diluted in Maxpar fix-perm buffer was performed overnight at 4 °C. Cells were washed twice with MCSB, samples were pelleted and resuspended in cell acquisition solution (CAS). A small volume of suspensions was maintained to quantify cells using Trypan blue staining. As last step, each sample was diluted with CAS and calibration beads that include metal isotopes.

The nature of a further data set: Solubility. The conditions noted are these: DMF.
Data set [3] concerns MDA-MB-231. Briefly: Platinum cell uptake by mass cytometry (CyTOF), MDA-MB-231. The format is cell-based. The conditions noted are these: 50 µM, 60 min, in comparison to carboplatin (Figure 2). The procedure:
as §1, §2, §3

Data set [4] relates to SkBr3 human breast cancer cells. Kind of data set: MTT viability assay, SkBr3. The format is cell-based. The following applies: 72h (Table 3b).
Data set [5] concerns MDA-MB-231. Briefly: MTT viability assay, MDA-MB-231. The format is cell-based, human. The following applies: 72h (Table 3b).
The mark [6] stands for this setting: 72h, with addition of 10 µM D-(+)-Biotin (Table 2b), read-out: MCF-7 and biotin IC50.
Setting [7] is: 72h, without biotin (Table 2b), read-out: MCF-7 IC50.

Values joined by “and” are separate entries in the source; they are usually repeats but may differ in a detail not shown here. Equal entries are not always repeated. Where two headings read alike, the source gives them in different places.

The text below walks through data of patent publication EP4461293B1, “BIOTIN RECEPTOR-BINDING […] COMPOUNDS” (Biomedical Research Foundation Academy of Athens, priority 2023, dated 2024).

As a reminder, the IC50 is the concentration that inhibits the measured activity by half. As to `N.N.[Cl][Pt][Cl]` [Cisplatin, reference compound], the IC50 with HCT-116 was 7 µM and 8 µM; with MCF-7 (setting [6]) it was 12 µM; with MCF-7 (setting [7]) it was 9 µM.

What is called Cmax is the highest concentration seen after dosing. Turning to `[NH3+][Pt-2]1([NH3+])[O]C(=O)C2(CCC2)C(=O)[O]1` [Carboplatin], in data set [1], the “concentration at which less than 50% viability is reached” value is 100 µM. In data set [2] (mouse, 60 mg/kg), this compound displayed a Cmax of 131 ± 50 µM. Moreover, the AUC at 2 h in [2] (mouse, 60 mg/kg, read-out: Areas under the curve (AUCs) (converted)) was 69.4 µM·h.

In the case of `C[C@@H]1[NH2+][Pt-2]([Cl])([Cl])[NH2+][C@@H]1CCCCCC(=O)O` [PMX114, (7R,8S)-7,8-diaminononanoic acid dichloroplatinum(II)], the “concentration at which less than 50% viability is reached” value in data set [1] is recorded as above 300 µM. Moreover, the “platinum uptake (CyTOF Pt195 signal)” value in the data set with A549 and in the data set on MDA-MB-231 [3] was “significantly greater” throughout. Besides, the “cellular uptake (CyTOF Pt195 signal)” value with SkBr3 was “significantly greater”. Also, in the data set on SkBr3 (preincubation with 100 µM of biotin for 15 min, then 50 µM drug), the “effect of biotin preincubation on platinum entry” value is given as “inhibition of platinum entry”. The Solubility result in “Solubility” is on record as “good”. In addition, in data set [2] (female, C57BL/6, mouse, 75 mg/kg, read-out: Areas under the curve (AUCs) (converted)), the AUC is 42.1 µM·h.

For the compound `CC(N)C(N)CCCCCC(=O)O.O=C1[O][Pt][O]C1=O` [PMX118, (7R,8S)-7,8-diaminononanoic acid oxalatoplatinum(ll)], the IC50 was 225 µM and > 250 µM in [4]; 225 µM and > 250 µM in the data set on HCT-116; 100 µM in the data set on MCF-7 (72h (Table 3b), read-out: MCF-7 IC50); 290 µM in the data set on MCF-7 (setting [6]); 133 µM in the data set on MCF-7 (setting [7]); 116 µM and 144 µM with MDA-MB-231 [5]. For the same compound, the “cellular uptake (CyTOF Pt195 signal)” value in the data set with SkBr3 is given as “significantly greater”.
